Laboratory results reported in ChEMBL document CHEMBL1201862, “PubChem BioAssay data set” (2004).
The source made the active and inactive calls.

Assays:
[1] = biological target: T1, Tyrosine-protein phosphatase non-receptor type 7 (Homo sapiens, UniProt P35236); assay: HePTP tyrosine phosphatase activity blockers – biochemical, absorbance, leukemia target, primary screen (AID 521); type: functional
T1 sequence (P35236 whole entry): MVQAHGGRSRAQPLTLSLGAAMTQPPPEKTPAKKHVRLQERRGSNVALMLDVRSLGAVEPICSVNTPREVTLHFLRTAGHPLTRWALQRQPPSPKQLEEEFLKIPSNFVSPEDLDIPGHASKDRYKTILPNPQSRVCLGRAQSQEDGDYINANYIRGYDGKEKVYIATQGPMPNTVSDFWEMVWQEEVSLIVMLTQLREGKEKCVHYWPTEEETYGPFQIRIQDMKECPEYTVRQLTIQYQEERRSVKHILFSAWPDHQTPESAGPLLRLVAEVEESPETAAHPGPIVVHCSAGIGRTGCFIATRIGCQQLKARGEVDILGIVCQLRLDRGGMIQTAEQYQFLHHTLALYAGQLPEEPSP

[2] = biological target: Sphingosine 1-phosphate receptor 2 (Homo sapiens, UniProt O95136); assay: Dose Response Cell Based Assay for Agonists of the S1P2 Receptor. [Related pubchem assays: 729, 736, 843 ]; type: functional
[3] = biological target: Fructose-bisphosphate aldolase (Mycobacterium tuberculosis, UniProt P9WQA3); assay: Fluorescence-based biochemical high throughput dose response assay for inhibitors of the fructose-bisphosphate aldolase (FBA) of M. tuberculosis.; type: functional
[4] = viability loss in human Jurkat cells – cell-based, luminescence, cytotoxicity control for P. falciparum gametocyte viability project, dose response (AID 1117277); type: functional;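 also: potency reflects loss of cellular ATP meaning fewer viable cells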
[5] = viability inhibitors of stage V gametocytes – luminescence, dose response (AID 1117278); type: functional, cell-based;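 also: gametocytes exposed to compound for 24 hours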
cells [6] = type: functional, cell-based
cells [7] = type: functional, cell-based; remark: listed apart in the source
[8] = biological target: Mitogen-activated protein kinase 10 (Homo sapiens, UniProt P53779); assay: Dose response biochemical screening assay for inhibitors of c-Jun N-Terminal Kinase 3 (JNK3). [Related pubchem assays: 746 ]
[9] = microbe, parasite or virus in culture; type: functional; conditions: Mycobacterium tuberculosis
Protein skinhead-1 = biological target: T2, Protein skinhead-1 (Caenorhabditis elegans, UniProt P34707); type: functional
T2 sequence (P34707 whole entry): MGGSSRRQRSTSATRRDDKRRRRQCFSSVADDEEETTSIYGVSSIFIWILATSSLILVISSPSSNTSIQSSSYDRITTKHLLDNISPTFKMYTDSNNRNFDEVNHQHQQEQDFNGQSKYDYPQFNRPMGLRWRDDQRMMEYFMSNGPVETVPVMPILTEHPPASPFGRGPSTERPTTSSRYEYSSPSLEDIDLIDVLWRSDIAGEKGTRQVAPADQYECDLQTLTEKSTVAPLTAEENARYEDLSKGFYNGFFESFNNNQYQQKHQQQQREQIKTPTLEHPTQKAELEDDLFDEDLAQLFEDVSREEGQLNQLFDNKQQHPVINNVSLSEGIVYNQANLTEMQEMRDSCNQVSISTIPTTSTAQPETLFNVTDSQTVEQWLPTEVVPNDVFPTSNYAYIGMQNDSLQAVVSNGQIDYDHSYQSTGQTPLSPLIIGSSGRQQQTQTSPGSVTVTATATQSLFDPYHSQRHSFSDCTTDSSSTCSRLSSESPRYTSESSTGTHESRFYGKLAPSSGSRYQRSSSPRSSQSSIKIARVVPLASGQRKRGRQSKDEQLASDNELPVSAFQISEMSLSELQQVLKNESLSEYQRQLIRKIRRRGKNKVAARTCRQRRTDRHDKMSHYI

[10] = biological target: T3, Runt-related transcription factor 1/Core-binding factor subunit beta (Homo sapiens, UniProt Q01196+Q13951); assay: Runt domain/CBFb-SMMHC interaction disruptors – biochemical, TR-FRET (AID 1438); type: protein assay
T3 sequence (Q01196 whole entry, the tested form may be a part): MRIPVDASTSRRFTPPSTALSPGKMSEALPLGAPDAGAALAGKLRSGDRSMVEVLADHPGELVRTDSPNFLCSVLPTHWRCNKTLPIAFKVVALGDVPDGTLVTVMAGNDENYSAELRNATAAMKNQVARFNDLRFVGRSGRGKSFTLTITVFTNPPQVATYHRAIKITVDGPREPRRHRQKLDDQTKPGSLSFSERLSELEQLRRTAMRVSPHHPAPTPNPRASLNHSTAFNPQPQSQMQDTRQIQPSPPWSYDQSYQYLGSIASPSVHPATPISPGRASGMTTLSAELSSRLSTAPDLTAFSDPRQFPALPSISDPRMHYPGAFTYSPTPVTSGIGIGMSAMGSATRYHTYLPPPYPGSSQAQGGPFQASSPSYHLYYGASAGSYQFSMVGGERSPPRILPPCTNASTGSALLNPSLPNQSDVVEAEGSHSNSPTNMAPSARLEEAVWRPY
T3 sequence (Q13951 whole entry, the tested form may be a part): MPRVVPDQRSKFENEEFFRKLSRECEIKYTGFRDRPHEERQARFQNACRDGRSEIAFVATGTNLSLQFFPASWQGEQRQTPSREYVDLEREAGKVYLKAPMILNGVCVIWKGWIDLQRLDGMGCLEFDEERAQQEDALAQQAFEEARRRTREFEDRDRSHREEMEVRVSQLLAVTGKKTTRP

[11] = IC50 of Artemis nuclease activity blockers – biochemical, fluorescence intensity, dose response (AID 720701); type: functional;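 also: Artemis endonuclease enzyme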
[12] = biological target: T3, Runt-related transcription factor 1/Core-binding factor subunit beta; assay: disruptors of Runt domain/CBFb-SMMHC interaction – biochemical, FRET, Cerulean-Runt, Venus-CBFb-SMMHC, uHTS, […] (AID 1434); type: protein assay
[13] = reduction of Shn3 3'UTR-driven luciferase in osteoblasts – cell-based, Clone20 osteoblasts, firefly luciferase, cherry-picked, dose response (AID 624132); type: functional;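 also: firefly luciferase luminescence from reporter carrying the Shn3 3'UTR in osteoblasts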
[14] = biological target: Disintegrin and metalloproteinase domain-containing protein 17 (Homo sapiens, UniProt P78536); assay: inhibition of ADAM17 substrate cleavage – biochemical, quenched FRET substrate, counter-screen for ADAM10 exosite inhibitor project, dose response (AID 743253)
Sequence of Disintegrin and metalloproteinase domain-containing protein 17 (P78536 whole entry, the tested form may be a part): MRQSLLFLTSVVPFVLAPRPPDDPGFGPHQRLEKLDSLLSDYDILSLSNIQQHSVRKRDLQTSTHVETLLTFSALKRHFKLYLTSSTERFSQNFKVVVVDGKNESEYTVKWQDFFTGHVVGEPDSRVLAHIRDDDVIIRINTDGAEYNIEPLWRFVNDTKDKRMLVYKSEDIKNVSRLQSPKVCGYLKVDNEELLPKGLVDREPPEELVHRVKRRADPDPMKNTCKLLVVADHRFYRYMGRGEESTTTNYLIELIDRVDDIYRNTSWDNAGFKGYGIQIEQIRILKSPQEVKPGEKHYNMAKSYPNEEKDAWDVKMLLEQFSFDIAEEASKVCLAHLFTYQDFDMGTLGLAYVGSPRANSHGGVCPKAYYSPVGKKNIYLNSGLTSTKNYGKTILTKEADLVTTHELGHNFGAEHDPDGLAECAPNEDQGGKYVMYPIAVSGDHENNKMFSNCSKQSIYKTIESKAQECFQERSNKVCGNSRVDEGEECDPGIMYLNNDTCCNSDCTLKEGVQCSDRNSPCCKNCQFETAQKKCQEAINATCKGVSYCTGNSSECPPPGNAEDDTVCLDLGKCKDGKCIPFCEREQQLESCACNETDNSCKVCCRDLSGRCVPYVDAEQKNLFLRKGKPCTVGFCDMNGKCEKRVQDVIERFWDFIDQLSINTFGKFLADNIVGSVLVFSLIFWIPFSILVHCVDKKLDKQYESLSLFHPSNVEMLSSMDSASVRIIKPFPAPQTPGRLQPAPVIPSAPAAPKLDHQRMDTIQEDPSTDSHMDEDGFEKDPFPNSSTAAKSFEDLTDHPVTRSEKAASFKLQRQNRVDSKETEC

[15] = potency of ADAM10 substrate cleavage blockers – biochemical, QFRET, dose response (AID 743254);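 also: ADAM10 enzyme with the DM2 quenched FRET peptide as substrate; EDANS fluorescence gain as the protease cuts the substrate; inhibitor potency against ADAM10 proteolytic activity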
[16] = loss of viability in HepG2 cells – cell-based, CellTiter-Glo, cherry-picked, cytotoxicity control for Shn3 inhibitor project, dose response (AID 624134); type: functional
[17] = Luminescence Cell-Based Dose Retest to Confirm Inhibitors of Cancer Stem Cells. [Related pubchem assays (depositor defined):AID2717, AID2721]; type: functional; conditions: Homo sapiens
Nonstructural protein 1 = Nonstructural protein 1 (Influenza A virus, UniProt Q194T2); type: functional, Influenza A virus (A/California/07/2009(H1N1))
[18] = biological target: T4, Rac GTPase-activating protein 1 (Homo sapiens, UniProt Q9H0H5); assay: blockers of MgcRacGAP-driven Rac1 GTP hydrolysis – biochemical, ADP Hunter fluorescence, primary and confirmatory, confirmation (AID 624330); type: functional
T4 sequence (Q9H0H5 whole entry): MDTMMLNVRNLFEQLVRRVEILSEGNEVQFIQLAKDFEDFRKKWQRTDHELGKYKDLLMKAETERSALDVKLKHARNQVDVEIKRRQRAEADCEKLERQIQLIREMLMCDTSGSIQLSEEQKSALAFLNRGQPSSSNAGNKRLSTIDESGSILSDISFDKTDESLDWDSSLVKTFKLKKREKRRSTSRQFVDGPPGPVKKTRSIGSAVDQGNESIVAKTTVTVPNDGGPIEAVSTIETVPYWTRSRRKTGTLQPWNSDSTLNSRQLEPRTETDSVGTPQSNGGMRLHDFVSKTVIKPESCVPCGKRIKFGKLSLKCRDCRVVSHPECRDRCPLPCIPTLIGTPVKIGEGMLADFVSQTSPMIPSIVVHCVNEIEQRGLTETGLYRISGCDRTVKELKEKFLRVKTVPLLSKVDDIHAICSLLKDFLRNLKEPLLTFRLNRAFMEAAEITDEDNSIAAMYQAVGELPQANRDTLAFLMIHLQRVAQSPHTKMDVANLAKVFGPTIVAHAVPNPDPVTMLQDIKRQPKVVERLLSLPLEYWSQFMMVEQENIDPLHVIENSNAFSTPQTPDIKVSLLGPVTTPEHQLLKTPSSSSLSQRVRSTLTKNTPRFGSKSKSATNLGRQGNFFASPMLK

[19] = HGIII-sPLA2 enzyme inhibition potency – biochemical, QFRET, IC50, dose response (AID 743457);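 also: green fluorescence rise as the enzyme cleaves BODIPY PC-A2 in liposomes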
[20] = viability loss in HeLa cells – cytotoxicity control for MgcRacGAP inhibitor project, dose response (AID 624300); type: functional
Fatty acid synthase [21] = biological target: T5, Fatty acid synthase (Homo sapiens, UniProt P49327); assay: inhibition of human FAS-TE enzyme activity – biochemical, endpoint fluorescence intensity, uHTS hits, dose response (AID 624327); type: functional;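 also: fluorescence from hydrolysis of an O-methyl fluorescein acyl ester substrate by the enzyme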
T5 sequence (P49327 whole entry): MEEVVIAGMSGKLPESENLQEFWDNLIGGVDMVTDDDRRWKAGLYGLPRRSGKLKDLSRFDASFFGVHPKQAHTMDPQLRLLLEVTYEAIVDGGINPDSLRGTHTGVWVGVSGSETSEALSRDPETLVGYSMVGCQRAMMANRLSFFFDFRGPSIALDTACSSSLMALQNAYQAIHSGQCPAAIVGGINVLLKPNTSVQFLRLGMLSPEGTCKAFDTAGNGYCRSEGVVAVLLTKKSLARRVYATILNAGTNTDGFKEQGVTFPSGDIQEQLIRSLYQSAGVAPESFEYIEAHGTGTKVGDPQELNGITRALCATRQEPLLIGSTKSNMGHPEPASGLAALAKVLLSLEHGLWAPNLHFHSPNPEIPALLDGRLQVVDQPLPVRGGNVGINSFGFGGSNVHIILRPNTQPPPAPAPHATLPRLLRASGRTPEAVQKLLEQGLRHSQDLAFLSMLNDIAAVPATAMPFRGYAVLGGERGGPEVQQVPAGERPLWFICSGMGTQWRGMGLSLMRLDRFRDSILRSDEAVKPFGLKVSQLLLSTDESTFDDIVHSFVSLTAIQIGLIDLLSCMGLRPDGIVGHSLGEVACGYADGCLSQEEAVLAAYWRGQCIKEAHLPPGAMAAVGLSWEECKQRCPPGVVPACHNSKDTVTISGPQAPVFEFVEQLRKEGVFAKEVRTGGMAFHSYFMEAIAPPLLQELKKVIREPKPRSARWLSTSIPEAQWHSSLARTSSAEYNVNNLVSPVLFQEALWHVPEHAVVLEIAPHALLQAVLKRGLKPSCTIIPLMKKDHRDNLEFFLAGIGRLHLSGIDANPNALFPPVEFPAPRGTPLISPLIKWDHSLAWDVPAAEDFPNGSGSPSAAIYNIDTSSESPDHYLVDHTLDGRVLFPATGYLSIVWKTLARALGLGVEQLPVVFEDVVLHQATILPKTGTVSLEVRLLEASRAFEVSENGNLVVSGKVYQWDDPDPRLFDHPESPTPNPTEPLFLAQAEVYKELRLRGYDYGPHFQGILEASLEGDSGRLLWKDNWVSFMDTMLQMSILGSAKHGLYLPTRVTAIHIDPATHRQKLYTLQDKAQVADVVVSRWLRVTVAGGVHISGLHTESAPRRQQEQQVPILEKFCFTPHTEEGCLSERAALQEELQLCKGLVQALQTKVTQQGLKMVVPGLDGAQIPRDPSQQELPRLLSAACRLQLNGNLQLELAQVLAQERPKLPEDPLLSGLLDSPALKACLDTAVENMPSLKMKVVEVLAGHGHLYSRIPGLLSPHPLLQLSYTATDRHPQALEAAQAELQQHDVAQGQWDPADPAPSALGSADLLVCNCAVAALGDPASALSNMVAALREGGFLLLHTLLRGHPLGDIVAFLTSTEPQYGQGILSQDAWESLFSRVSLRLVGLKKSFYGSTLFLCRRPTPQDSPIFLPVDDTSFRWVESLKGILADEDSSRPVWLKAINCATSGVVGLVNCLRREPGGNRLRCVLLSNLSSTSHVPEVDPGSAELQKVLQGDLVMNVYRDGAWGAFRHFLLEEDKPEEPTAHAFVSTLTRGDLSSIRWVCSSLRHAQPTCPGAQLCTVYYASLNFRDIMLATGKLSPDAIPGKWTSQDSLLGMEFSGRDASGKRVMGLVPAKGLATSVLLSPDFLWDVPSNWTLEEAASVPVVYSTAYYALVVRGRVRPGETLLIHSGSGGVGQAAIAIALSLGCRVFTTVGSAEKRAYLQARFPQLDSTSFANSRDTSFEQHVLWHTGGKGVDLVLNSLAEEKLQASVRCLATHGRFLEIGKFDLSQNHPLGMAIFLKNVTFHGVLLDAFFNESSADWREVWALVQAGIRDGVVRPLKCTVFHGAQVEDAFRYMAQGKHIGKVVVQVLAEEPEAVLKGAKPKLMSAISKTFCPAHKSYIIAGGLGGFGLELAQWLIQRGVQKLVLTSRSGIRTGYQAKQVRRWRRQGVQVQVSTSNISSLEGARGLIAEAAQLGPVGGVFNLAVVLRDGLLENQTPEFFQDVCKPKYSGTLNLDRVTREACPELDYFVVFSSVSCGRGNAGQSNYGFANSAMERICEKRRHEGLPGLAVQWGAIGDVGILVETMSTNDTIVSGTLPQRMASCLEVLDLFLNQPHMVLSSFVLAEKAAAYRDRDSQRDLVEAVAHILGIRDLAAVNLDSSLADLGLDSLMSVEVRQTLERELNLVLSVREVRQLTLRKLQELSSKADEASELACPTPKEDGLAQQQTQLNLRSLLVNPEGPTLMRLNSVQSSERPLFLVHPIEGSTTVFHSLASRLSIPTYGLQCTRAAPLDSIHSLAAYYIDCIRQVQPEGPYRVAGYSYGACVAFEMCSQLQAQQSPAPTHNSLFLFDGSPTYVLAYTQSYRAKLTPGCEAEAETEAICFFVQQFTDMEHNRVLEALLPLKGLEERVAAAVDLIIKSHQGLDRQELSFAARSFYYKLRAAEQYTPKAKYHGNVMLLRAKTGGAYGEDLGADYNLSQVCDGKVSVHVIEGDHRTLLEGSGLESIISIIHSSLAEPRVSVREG

[22] = biological target: Tyrosyl-DNA phosphodiesterase 2 (Homo sapiens, UniProt O95551); assay: potency against TDP2 phosphodiesterase activity – biochemical, epi absorbance, IC50, dose response (AID 743297)
Fatty acid synthase [23] = biological target: T5, Fatty acid synthase; assay: inhibition of human FAS-TE enzyme activity – biochemical, kinetic fluorescence intensity, dose response (AID 624326); type: functional;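 also: rate of fluorescence rise from hydrolysis of a fluorogenic O-methyl fluorescein ester substrate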
H9c2 = assay: cells; type: functional, cell-based; conditions: Rattus norvegicus, H9c2, Myocardium;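 also: confirmatory concentration-response retest of ultra-high-throughput screening hits for modulation of myocardial damage; cell death induced by hydrogen peroxide oxidative stress; compound pretreatment for 60 min then peroxide exposure for 2 h; potency is for protecting the cells against peroxide damage rather than for killing them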
[24] = OVCAR-3 cell viability loss – plate reader, dry powder samples, PAX8 inhibitor project, dose response (AID 743044); type: functional, cell-based
[25] = IGROV1 cell killing – plate reader, dry powder samples, PAX8 inhibitor project, dose response (AID 743043); type: functional, cell-based; conditions: IGROV-1
[26] = OVCAR8 cell viability loss – plate reader, dry powder samples, PAX8 project, dose response (AID 743197); type: functional, cell-based; conditions: OVCAR-8
Paired box protein Pax-8 = Paired box protein Pax-8 (Homo sapiens, UniProt Q06710); assay: PAX8 transcriptional activity inhibition in RMG-I – RMG-I cells, luciferase, cherry-pick, dose response (AID 687027); type: functional, cell-based;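 also: luciferase reporter driven by Pax8 target thyroperoxidase promoter measured by SteadyGlo luminescence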
Sequence of Paired box protein Pax-8 (Q06710 whole entry): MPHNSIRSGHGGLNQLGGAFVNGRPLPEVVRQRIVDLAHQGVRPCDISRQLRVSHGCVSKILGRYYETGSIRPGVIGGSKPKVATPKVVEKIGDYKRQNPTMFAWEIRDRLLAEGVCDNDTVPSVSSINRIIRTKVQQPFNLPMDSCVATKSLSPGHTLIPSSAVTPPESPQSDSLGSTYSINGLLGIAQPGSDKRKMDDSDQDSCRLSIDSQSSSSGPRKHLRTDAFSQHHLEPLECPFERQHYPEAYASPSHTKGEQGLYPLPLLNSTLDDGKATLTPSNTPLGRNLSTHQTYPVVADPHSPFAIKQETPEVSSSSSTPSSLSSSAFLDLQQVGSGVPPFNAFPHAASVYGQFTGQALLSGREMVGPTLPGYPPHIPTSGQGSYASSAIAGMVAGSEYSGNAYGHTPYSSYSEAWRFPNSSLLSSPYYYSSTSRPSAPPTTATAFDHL

[27] = biological target: E3 ubiquitin-protein ligase Mdm2 (Homo sapiens, UniProt Q00987); assay: MDM2-luc reporter signal enhancers, multi-concentration potency testing, MDM2 ubiquitin-protein ligase inhibitor program, whole-cell format, luminescence detection, 384-well microplate (AID 1394); type: functional;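 also: MDM2 E3 inhibitors raise luminescence so EC50 is for signal enhancement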
Sequence of E3 ubiquitin-protein ligase Mdm2 (Q00987 whole entry): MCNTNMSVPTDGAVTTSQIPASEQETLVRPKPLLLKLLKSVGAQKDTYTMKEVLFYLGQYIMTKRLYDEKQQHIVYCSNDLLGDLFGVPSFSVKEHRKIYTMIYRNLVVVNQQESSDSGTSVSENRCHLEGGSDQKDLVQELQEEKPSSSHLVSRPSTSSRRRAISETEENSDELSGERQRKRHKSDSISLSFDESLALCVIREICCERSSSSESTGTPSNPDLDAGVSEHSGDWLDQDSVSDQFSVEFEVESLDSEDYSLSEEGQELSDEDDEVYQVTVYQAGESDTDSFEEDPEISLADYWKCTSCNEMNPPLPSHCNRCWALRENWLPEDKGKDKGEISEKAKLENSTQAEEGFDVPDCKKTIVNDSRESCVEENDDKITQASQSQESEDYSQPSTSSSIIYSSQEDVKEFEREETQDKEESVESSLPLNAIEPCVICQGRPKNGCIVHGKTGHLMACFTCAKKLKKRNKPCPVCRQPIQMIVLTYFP

For `CCCCNC(=O)c1cc(-c2ccc(OC)c(OC)c2)on1`, the IC50 [1] was > 100 µM (not active).
With `O=S(=O)(Cc1ccc(Cl)cc1)NCC1CCCO1` (stereo not given) the EC50 [2] was > 50 µM (not active).
In the case of `O=C(Nc1nnc(-c2ccncc2)s1)C1CCCO1` (stereo not given), the IC50 [3] was 1.09 µM (active).
With `CCN(CC)c1ccc(C(=O)OCC(=O)N2CCN(c3ccccc3)CC2)cc1` the IC50 [1] was > 100 µM (not active).
With `Cc1ccc(CNC(=O)C2CCN(S(=O)(=O)N3CCCCC3)CC2)cc1` the IC50 [4] was > 83.4 µM (inactive) and the IC50 [5] was > 109 µM (inactive).
With `CCOC(=O)C1(C)NC(c2ccc(OC)cc2OC)C2C(=O)N(CC)C(=O)C21` (stereo not given) the IC50 [4] was > 83.3 µM (inactive), the EC50 (cells [6]) was > 350 µM (not active) and the IC50 [5] was > 109 µM (inactive). For the same compound, the EC50 (cells [7]) was > 350 µM (not active).
With `COc1ccc(NC(=O)CCCCn2c(=O)[nH]c3ccccc3c2=O)cc1` the IC50 [8] was 55.1 µM (not active).
For `COc1cc(NC(=O)c2ccc(COc3ccccc3Br)o2)cc(OC)c1OC`, the IC50 [8] was 33 µM (not active) and the CC50 [9] was > 40 µM (active).
In the case of `N=c1c(C(=O)NCc2ccccc2)cc2c(=O)n3ccccc3nc2n1Cc1ccco1`, the IC50 (Protein skinhead-1) was > 100 µM (inactive), the IC50 [10] was 36.6 µM (active) and the IC50 [11] was > 20 µM (inactive). The IC50 [12] was 2.34 µM (active).
With `COc1cccc(CNC(=O)CN(c2cc(C)cc(C)c2)S(=O)(=O)c2c(C)noc2C)c1` the EC50 [2] was > 50 µM (not active).
For `C[C@@H]1CN([C@@H](C)CO)C(=O)c2cc(NC(=O)Nc3ccc(F)cc3)ccc2O[C@@H]1CN(C)Cc1ccc(Oc2ccccc2)cc1`, the AC50 [13] was 9.38 µM (active), the IC50 [14] was > 69.5 µM (inactive) and the IC50 [15] was > 2.58 µM (active). For the same compound, the AC50 [16] was 18.7 µM (active) and the AC50 [17] was 2.95 µM (active).
In the case of `CCOC(=O)c1cc2c(=Cc3ccc(N(C)C)cc3)c3ccccc3n2[n+]1C`, the IC50 (Nonstructural protein 1) was 12 µM (active), the IC50 [18] was 42.5 µM (active) and the IC50 [19] was 36.1 µM (inactive). For the same compound, the CC50 [20] was 100 µM (active), the IC50 (Fatty acid synthase [21]) was 12.9 µM (active) and the IC50 [22] was > 128 µM (inactive). The IC50 (Fatty acid synthase [23]) was 8.42 µM (active).
In the case of `CCCCCCn1cnc2c(c1=O)c1nc3ccccc3nc1n2/N=C/c1ccco1`, the IC50 (H9c2) was 19.1 µM (active) and the IC50 [11] was > 20 µM (inactive).
In the case of `CN1CCN(C(=O)C2Cc3c(-c4ccc5c(c4)OCO5)ccnc3O2)CC1` (stereo not given), the IC50 [3] was 1.73 µM (active).
With `COc1ccc(S(=O)(=O)Nc2ccc3c(c2)C(=O)N([C@H](C)CO)C[C@@H](C)[C@H](CN(C)S(=O)(=O)c2ccc(Cl)cc2)OCCCC[C@H](C)O3)cc1` the AC50 [24] was 33.5 µM (active), the AC50 [25] was 34.6 µM (active) and the AC50 [26] was > 70 µM (inactive). For the same compound, the AC50 (Paired box protein Pax-8) was 3.99 µM (active).
In the case of `C[C@H]1CCCCO[C@@H](CN(C)Cc2ccccc2)[C@@H](C)CN([C@@H](C)CO)C(=O)c2cc(NC(=O)Nc3ccc(C(F)(F)F)cc3)ccc2O1`, the AC50 [24] was 60.4 µM (active), the AC50 [25] was 48.1 µM (active) and the AC50 [26] was 42 µM (active). The AC50 (Paired box protein Pax-8) was 11.6 µM (active).
In the case of `CCOc1ccc(-n2c(SCC(=O)Nc3ccc(S(=O)(=O)Nc4nccs4)cc3)nnc2-c2ccc(C(C)(C)C)cc2)cc1`, the IC50 [14] was > 69.5 µM (inactive) and the IC50 [15] was 9.71 µM (active).
With `COc1ccc(OCC(=O)N/N=C(\C)CC(=O)Nc2cccc([N+](=O)[O-])c2)cc1` the EC50 [27] was 15.7 µM (not active).
With `O=C1CN(c2cc(Cl)cc(Cl)c2)C(=O)CN1/N=C/c1cccnc1` the EC50 [27] was 0.01 µM (not active).
